Tested on: subjects with moderate-to-severe plaque psoriasis
Test: PSSD symptom and sign scores, Example 2
Format: in vivo, human
Conditions: for Change from Baseline in PSSD Sign Score, LSMean / Change from Baseline in PSSD Symptom Score, LSMean: MMRM

## CC(=O)NCCCC[C@@H]1NC(=O)[C@H](Cc2c[nH]c3c(C)cccc23)NC(=O)[C@H]([C@@H](C)O)NC(=O)[C@H](CC(N)=O)NC(=O)[C@@H](NC(C)=O)C(C)(C)SSC(C)(C)[C@@H](C(=O)N[C@@H](Cc2ccc(OCCN)cc2)C(=O)N[C@@H](Cc2ccc3ccccc3c2)C(=O)NC2(C(=O)N[C@@H](CCC(=O)O)C(=O)N[C@@H](CC(N)=O)C(=O)N[C@@H](Cc3cccnc3)C(=O)N(C)CC(N)=O)CCOCC2)NC1=O [IL-23 receptor antagonist peptide, Ac-[Pen]*-N-T-[W(7-Me)]-[Lys(Ac)]-[Pen]*-Phe[4-(2-aminoethoxy)]-[2-Nal]-[THP]-E-N-[3-Pal]-Sarc-NH2 (*[Pen]-[Pen]* formdisulfidebond)]
Week 32, 100 mg QD
  Change from Baseline in PSSD Symptom Score, Mean: −28.0
  Change from Baseline in PSSD Symptom Score, Median: −25.0
  Change from Baseline in PSSD Sign Score, LSMean: −45.8
  Change from Baseline in PSSD Symptom Score, LSMean: −36.4
Week 32, 100 mg QD, Baseline Sign Score ≥1, N=43
  Subjects Achieving PSSD Sign Score 0 (%): (14.0%)
Week 32, 100 mg QD, Baseline Symptom Score ≥1, N=43
  Subjects Achieving PSSD Symptom Score 0 (%): (18.6%)
Week 32, Placebo → 100 mg QD
  Change from Baseline in PSSD Sign Score, Mean: −42.3
  Change from Baseline in PSSD Sign Score, Median: −45.0
  Change from Baseline in PSSD Symptom Score, Mean: −31.9
  Change from Baseline in PSSD Symptom Score, Median: −36.0
  Change from Baseline in PSSD Sign Score, LSMean: −41.8
  Change from Baseline in PSSD Symptom Score, LSMean: −33.9
Week 32, Placebo → 100 mg QD, Baseline Sign Score ≥1, crossed-over subjects only
  Subjects Achieving PSSD Sign Score 0 (%): (17.1%)
Week 32, Placebo → 100 mg QD, Baseline Symptom Score ≥1, crossed-over subjects only
  Subjects Achieving PSSD Symptom Score 0 (%): (20.0%)
Week 40, 25 mg BID
  Change from Baseline in PSSD Sign Score, Mean: −34.1
  Change from Baseline in PSSD Sign Score, Median: −34.0
  Change from Baseline in PSSD Symptom Score, Mean: −30.0
  Change from Baseline in PSSD Symptom Score, Median: −32.0
  Change from Baseline in PSSD Sign Score, LSMean: −34.9
  Change from Baseline in PSSD Symptom Score, LSMean: −30.5
Week 40, 25 mg BID, Baseline Sign Score ≥1, N=41
  Subjects Achieving PSSD Sign Score 0 (%): (4.9%)
Week 40, 25 mg BID, Baseline Symptom Score ≥1, N=41
  Subjects Achieving PSSD Symptom Score 0 (%): (9.8%)
Week 40, 25 mg QD
  Change from Baseline in PSSD Sign Score, Mean: −36.9
  Change from Baseline in PSSD Sign Score, Median: −36.0
  Change from Baseline in PSSD Symptom Score, Mean: −33.9
  Change from Baseline in PSSD Symptom Score, Median: −35.0
  Change from Baseline in PSSD Sign Score, LSMean: −29.4
  Change from Baseline in PSSD Symptom Score, LSMean: −25.9
Week 40, 25 mg QD, Baseline Sign Score ≥1, N=43
  Subjects Achieving PSSD Sign Score 0 (%): (11.6%)
Week 40, 25 mg QD, Baseline Symptom Score ≥1, N=43
  Subjects Achieving PSSD Symptom Score 0 (%): (20.9%)
Week 40, 50 mg QD
  Change from Baseline in PSSD Sign Score, Mean: −39.6
  Change from Baseline in PSSD Sign Score, Median: −42.0
  Change from Baseline in PSSD Symptom Score, Mean: −34.9
  Change from Baseline in PSSD Symptom Score, Median: −32.0
  Change from Baseline in PSSD Sign Score, LSMean: −39.5
  Change from Baseline in PSSD Symptom Score, LSMean: −32.7
Week 40, 50 mg QD, Baseline Sign Score ≥1, N=43
  Subjects Achieving PSSD Sign Score 0 (%): (9.3%)
Week 40, 50 mg QD, Baseline Symptom Score ≥1, N=42
  Subjects Achieving PSSD Symptom Score 0 (%): (23.8%)
Week 40, 100 mg BID
  Change from Baseline in PSSD Sign Score, Mean: −52.4
  Change from Baseline in PSSD Sign Score, Median: −54.5
  Change from Baseline in PSSD Symptom Score, Mean: −47.5
  Change from Baseline in PSSD Symptom Score, Median: −49.5
  Change from Baseline in PSSD Sign Score, LSMean: −51.4
  Change from Baseline in PSSD Symptom Score, LSMean: −43.5
Week 40, 100 mg BID, Baseline Sign Score ≥1, N=42
  Subjects Achieving PSSD Sign Score 0 (%): (19.0%)
Week 40, 100 mg BID, Baseline Symptom Score ≥1, N=42
  Subjects Achieving PSSD Symptom Score 0 (%): (28.6%)
Week 40, 100 mg QD
  Change from Baseline in PSSD Sign Score, Mean: −42.4
  Change from Baseline in PSSD Sign Score, Median: −43.0
  Change from Baseline in PSSD Symptom Score, Mean: −28.2
  Change from Baseline in PSSD Symptom Score, Median: −24.0
  Change from Baseline in PSSD Sign Score, LSMean: −45.6
  Change from Baseline in PSSD Symptom Score, LSMean: −36.1
Week 40, 100 mg QD, Baseline Sign Score ≥1, N=43
  Subjects Achieving PSSD Sign Score 0 (%): (18.6%)
Week 40, 100 mg QD, Baseline Symptom Score ≥1, N=43
  Subjects Achieving PSSD Symptom Score 0 (%): (18.6%)
Week 40, Placebo → 100 mg QD
  Change from Baseline in PSSD Sign Score, Mean: −36.6
  Change from Baseline in PSSD Sign Score, Median: −48.5
  Change from Baseline in PSSD Symptom Score, Mean: −23.8
  Change from Baseline in PSSD Symptom Score, Median: −24.0
  Change from Baseline in PSSD Sign Score, LSMean: −36.9
  Change from Baseline in PSSD Symptom Score, LSMean: −27.0
Week 40, Placebo → 100 mg QD, Baseline Sign Score ≥1, crossed-over subjects only
  Subjects Achieving PSSD Sign Score 0 (%): (14.3%)
Week 40, Placebo → 100 mg QD, Baseline Symptom Score ≥1, crossed-over subjects only
  Subjects Achieving PSSD Symptom Score 0 (%): (25.7%)
Week 52, 25 mg BID
  Change from Baseline in PSSD Sign Score, Mean: −36.6
  Change from Baseline in PSSD Sign Score, Median: −38.5
  Change from Baseline in PSSD Symptom Score, Mean: −31.2
  Change from Baseline in PSSD Symptom Score, Median: −27.0
  Change from Baseline in PSSD Sign Score, LSMean: −37.2
  Change from Baseline in PSSD Symptom Score, LSMean: −31.4
Week 52, 25 mg BID, Baseline Sign Score ≥1, N=41
  Subjects Achieving PSSD Sign Score 0 (%): (12.2%)
Week 52, 25 mg BID, Baseline Symptom Score ≥1, N=41
  Subjects Achieving PSSD Symptom Score 0 (%): (17.1%)
Week 52, 25 mg QD
  Change from Baseline in PSSD Sign Score, Mean: −35.2
  Change from Baseline in PSSD Sign Score, Median: −32.5
  Change from Baseline in PSSD Symptom Score, Mean: −30.1
  Change from Baseline in PSSD Symptom Score, Median: −35.0
  Change from Baseline in PSSD Sign Score, LSMean: −27.9
  Change from Baseline in PSSD Symptom Score, LSMean: −22.3
Week 52, 25 mg QD, Baseline Sign Score ≥1, N=43
  Subjects Achieving PSSD Sign Score 0 (%): (16.3%)
Week 52, 25 mg QD, Baseline Symptom Score ≥1, N=43
  Subjects Achieving PSSD Symptom Score 0 (%): (18.6%)
Week 52, 50 mg QD
  Change from Baseline in PSSD Sign Score, Mean: −39.2
  Change from Baseline in PSSD Sign Score, Median: −45.0
  Change from Baseline in PSSD Symptom Score, Mean: −35.2
  Change from Baseline in PSSD Symptom Score, Median: −34.0
  Change from Baseline in PSSD Sign Score, LSMean: −39.0
  Change from Baseline in PSSD Symptom Score, LSMean: −33.0
Week 52, 50 mg QD, Baseline Sign Score ≥1, N=43
  Subjects Achieving PSSD Sign Score 0 (%): (11.6%)
Week 52, 50 mg QD, Baseline Symptom Score ≥1, N=42
  Subjects Achieving PSSD Symptom Score 0 (%): (21.4%)
Week 52, 100 mg BID
  Change from Baseline in PSSD Sign Score, Mean: −53.1
  Change from Baseline in PSSD Sign Score, Median: −55.0
  Change from Baseline in PSSD Symptom Score, Mean: −47.7
  Change from Baseline in PSSD Symptom Score, Median: −53.0
  Change from Baseline in PSSD Sign Score, LSMean: −51.9
  Change from Baseline in PSSD Symptom Score, LSMean: −44.0
Week 52, 100 mg BID, Baseline Sign Score ≥1, N=42
  Subjects Achieving PSSD Sign Score 0 (%): (16.7%)
Week 52, 100 mg BID, Baseline Symptom Score ≥1, N=42
  Subjects Achieving PSSD Symptom Score 0 (%): (26.2%)
Week 52, 100 mg QD
  Change from Baseline in PSSD Sign Score, Mean: −43.1
  Change from Baseline in PSSD Sign Score, Median: −43.0
  Change from Baseline in PSSD Symptom Score, Mean: −29.4
  Change from Baseline in PSSD Symptom Score, Median: −28.0
  Change from Baseline in PSSD Sign Score, LSMean: −45.8
  Change from Baseline in PSSD Symptom Score, LSMean: −36.5
Week 52, 100 mg QD, Baseline Sign Score ≥1, N=43
  Subjects Achieving PSSD Sign Score 0 (%): (14.0%)
Week 52, 100 mg QD, Baseline Symptom Score ≥1, N=43
  Subjects Achieving PSSD Symptom Score 0 (%): (30.2%)
Week 52, Placebo → 100 mg QD
  Change from Baseline in PSSD Sign Score, Mean: −42.8
  Change from Baseline in PSSD Sign Score, Median: −48.5
  Change from Baseline in PSSD Symptom Score, Mean: −29.5
  Change from Baseline in PSSD Symptom Score, Median: −30.0
  Change from Baseline in PSSD Sign Score, LSMean: −43.1
  Change from Baseline in PSSD Symptom Score, LSMean: −32.4
Week 52, Placebo → 100 mg QD, Baseline Sign Score ≥1, crossed-over subjects only
  Subjects Achieving PSSD Sign Score 0 (%): (22.9%)
Week 52, Placebo → 100 mg QD, Baseline Symptom Score ≥1, crossed-over subjects only
  Subjects Achieving PSSD Symptom Score 0 (%): (34.3%)

From patent US20260232767A1, “INTERLEUKIN-23 RECEPTOR ANTAGONIST PEPTIDES FOR USE IN THE TREATMENT OF PSORIASIS” (Janssen Pharmaceutica NV, priority 2023, published 2026)
